The record followed here is BindingDB's records for doi:10.1021/jm960720+ (Ansto, 1997).

The structures appear in SMILES notation.

Test [1] addresses Sigma non-opioid intracellular receptor 1 (Cavia porcellus) (UniProt Q60492). The test is described as follows: In vitro for binding affinity at sigma-1 receptor by measuring its ability to displace [3H](+)-pentazocine from guinea pig membranes.
For test [2] the target is unchanged. The test is described as follows: Receptor binding affinity against Sigma-1 receptor from guinea pig membranes.

Sigma non-opioid intracellular receptor 1 (Cavia porcellus), sequence (Q60492 whole entry, looked up): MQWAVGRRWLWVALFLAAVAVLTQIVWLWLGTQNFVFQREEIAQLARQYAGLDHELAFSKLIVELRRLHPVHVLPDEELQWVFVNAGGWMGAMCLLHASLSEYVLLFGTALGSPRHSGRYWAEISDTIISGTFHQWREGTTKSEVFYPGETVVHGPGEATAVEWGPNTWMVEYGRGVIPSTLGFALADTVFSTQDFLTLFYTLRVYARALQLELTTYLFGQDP

For `N#Cc1ccc(OCC2CCN(CCF)CC2)cc1` [4-[1-(2-Fluoro-ethyl)-piperidin-4-ylmethoxy]-benzonitrile], in test [1], the Ki was 24.3 nM. This lies in the double-digit nanomolar range. In turn, `N#Cc1ccc(OCC2CCN(Cc3ccccc3Br)CC2)cc1` [4-[1-(2-Bromo-benzyl)-piperidin-4-ylmethoxy]-benzonitrile] came in with a Ki in test [1] of 2.02 nM.

`N#Cc1ccccc1CN1CCC(COc2ccc(I)cc2)CC1` [2-[4-(4-Iodo-phenoxymethyl)-piperidin-1-ylmethyl]-benzonitrile] showed a Ki in test [1] of 10.5 nM. `Brc1ccc(OCC2CCN(CC3CC3)CC2)cc1` [4-(4-Bromo-phenoxymethyl)-1-cyclopropylmethyl-piperidine] yielded a Ki in test [1] of 0.6 nM.

As for `OCCN1CCC(COc2ccc(I)cc2)CC1` [2-[4-(4-Iodo-phenoxymethyl)-piperidin-1-yl]-ethanol], in test [1], the Ki is 2.3 nM. `N#Cc1ccc(OCC2CCN(Cc3ccc(F)cc3)CC2)cc1` [4-[1-(4-Fluoro-benzyl)-piperidin-4-ylmethoxy]-benzonitrile] showed a Ki in test [1] of 0.76 nM. The same measure, in the same setting: for `Fc1cccc(CN2CCC(COc3c(F)c(F)c(F)c(F)c3F)CC2)c1` [1-(3-Fluoro-benzyl)-4-pentafluorophenyloxymethyl-piperidine] the value was 3.3 nM.

Consider `N#Cc1cccc(CN2CCC(COc3ccc(I)cc3)CC2)c1` [3-[4-(4-Iodo-phenoxymethyl)-piperidin-1-ylmethyl]-benzonitrile], for which the Ki in test [1] was 2.9 nM. In turn, `FCCN1CCC(COc2ccc(I)cc2)CC1` [1-(2-Fluoro-ethyl)-4-(4-iodo-phenoxymethyl)-piperidine] registered a Ki in test [1] of 0.84 nM. Regarding `N#Cc1ccc(OCC2CCN(CCCF)CC2)cc1`, the Ki in test [1] was 4.3 nM. Still for that read-out and setting: to `FCCCN1CCC(COc2ccc(Br)cc2)CC1` [4-(4-Bromo-phenoxymethyl)-1-(3-fluoro-propyl)-piperidine] belongs 0.38 nM. In the case of `O=[N+]([O-])c1ccc(OCC2CCN(Cc3ccc(F)cc3)CC2)cc1` [1-(4-Fluoro-benzyl)-4-(4-nitro-phenoxymethyl)-piperidine], the Ki in test [2] came to 1.2 nM. The compound `Fc1ccc(CN2CCC(COc3c(F)c(F)c(F)c(F)c3F)CC2)cc1` [1-(4-Fluoro-benzyl)-4-pentafluorophenyloxymethyl-piperidine] showed a Ki in test [1] of 3.6 nM. On the same count and under the same terms, to `FCCCN1CCC(COc2c(F)c(F)c(F)c(F)c2F)CC1` [1-(3-Fluoro-propyl)-4-pentafluorophenyloxymethyl-piperidine] belongs 1.7 nM. `Brc1cccc(OCC2CCN(CC3CC3)CC2)c1` [4-(3-Bromo-phenoxymethyl)-1-cyclopropylmethyl-piperidine] showed a Ki in test [1] of 0.88 nM.

As for `N#Cc1ccc(OCC2CCN(Cc3ccccc3I)CC2)cc1` [4-[1-(2-Iodo-benzyl)-piperidin-4-ylmethoxy]-benzonitrile], the affinity in test [1] corresponds to a Ki of 9.24 nM.

In test [1], `Fc1c(F)c(F)c(CN2CCC(COc3c(F)c(F)c(F)c(F)c3F)CC2)c(F)c1F` [1-Pentafluorophenylmethyl-4-pentafluorophenyloxymethyl-piperidine] came in with a Ki greater than 1000 nM. The same measure, in the same setting: to `Ic1ccc(OCC2CCN(CC3CC3)CC2)cc1` [1-Cyclopropylmethyl-4-(4-iodo-phenoxymethyl)-piperidine] belongs 0.5 nM.

As usually defined, the Ki is a measure of affinity in units of concentration, obtained from inhibition or displacement.
